Assay results published in patent publication US20250332173A1, “COMPOUNDS AND METHODS FOR MODULATING NUCLEIC ACID SPLICING” (REMIX THERAPEUTICS INC., priority 2021, published 2025).
pIC50: −log10 of the molar value. Like-named read-outs stand apart in the source and are kept apart here.

Assays:
HTT mRNA = assay: RT-qPCR splicing assay, HTT canonical junction (CJ) and alternative junction (AJ) mRNA; format: cell-based, human; settings: Homo sapiens; for AC50: increase in HTT alternative junction (AJ) mRNA, read-out: HTT AJ AC50
How it was run: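 Splicing switches were read by TaqMan RT-qPCR on lysates, quantifying exon-exon junctions of the canonical and alternative-exon isoforms. Lysates came from K562 (GAPDH/GUSB reference) or A673 (PPIA reference) cells exposed 24 h to compound in 11 threefold steps from 10 uM, with DMSO ≤0.25%.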

[1] = test system: K562 (human chronic myelogenous leukemia) cells; assay: Cell Titer Glo 2.0 cell viability assay; format: cell-based; settings: Homo sapiens, K562, 72 h, K562 cells, 72 hours, Cell Titer Glo 2.0; read-out: K562 GI50
[2] = decrease in HTT canonical junction (CJ) mRNA, RT-qPCR, read-out: HTT CJ IC50
[3] = canonical junction qPCR panel, Table 5, read-out: HTT (decrease in CJ mRNA levels, IC50)
[4] = Table 5 panel, canonical junction qPCR, compound concentration having 50% response in CJ decrease, read-out: HTT IC50 (decrease in CJ mRNA levels)

| Structure (SMILES) | pIC50 (HTT mRNA; [2]) | pIC50 (HTT mRNA; [3]) | GI50 [1] | pIC50 (HTT mRNA; [4]) | AC50 (HTT mRNA; RT-qPCR) |
| --- | --- | --- | --- | --- | --- |
| Cc1cn2cc(-c3ccc4c(=O)n(C5CCNC5)ccc4n3)c(O)c(C)c2n1 (stereo not shown) [Compound 1302] | < 5.00 | < 5.00 | > 10 µM |  | > 10 µM |
| Cc1c(O)c(-c2ccc3c(=O)n(C4CC(C)NC(C)C4)ccc3n2)cc2cn(C)nc12 (stereo not shown) [Compound 1447, 6-(2,6-dimethyl-4-piperidyl)-2-(6-hydroxy-2,7-dimethyl-indazol-5-yl)-1,6-naphthyridin-5-one] | 6.00 to 7.00 | 6.00 to 7.00 | 0.1 to 1 µM |  | 0.1 to 1 µM |
| Cc1cn2cc(-c3ncc4c(=O)n([C@@H]5CCNC6(CC6)C5)ccc4n3)cc(F)c2n1 [Compound 1457, 6-[(7R)-4-azaspiro[2.5]octan-7-yl]-2-(8-fluoro-2-methyl-imidazo[1,2-a]pyridin-6-yl)pyrido[4,3-d]pyrimidin-5-one] | 5.00 to 6.00 | 6.00 to 7.00 | 0.1 to 1 µM |  | 0.1 to 1 µM |
| Cc1cn2cc(-c3ccc4c(=O)n(C5CCNCC5)ccc4n3)cc(C)c2n1 [Compound 1241, 2-(2,8-dimethylimidazo[1,2-a]pyridin-6-yl)-6-(piperidin-4-yl)-1,6-naphthyridin-5(6H)-one] | 6.00 to 7.00 | 6.00 to 7.00 | < 0.1 µM |  | 0.1 to 1 µM |
| Cc1cn2nc(-c3ccc4c(=O)n([C@H]5CCNC5)ccc4n3)cc(C)c2n1 [Compound 1437, 2-(2,8-dimethylimidazo[1,2-b]pyridazin-6-yl)-6-[(3S)-pyrrolidin-3-yl]-1,6-aphthyridin-5-one] | 5.00 to 6.00 | 5.00 to 6.00 | 1 to 10 µM |  | 1 to 10 µM |
| Cc1c(O)c(-c2ncc3c(=O)n([C@@H]4C[C@H]5C[C@@H]4CN5)ccc3n2)cc2cn(C)nc12 (stereo in doubt) [Compound 1446, 6-[(1R,4R,5R)-2-azabicyclo[2.2.1]heptan-5-yl]-2-(6-hydroxy-2,7-dimethyl-indazol-5-yl)pyrido[4,3-d]pyrimidin-5-one] | < 5.00 | < 5.00 | 0.1 to 1 µM |  | > 10 µM |
| CCN1CCC(n2ccc3cc(-c4cc(C)c5nn(C)cc5c4)ncc3c2=O)CC1 [Compound 1207, 6-(2,7-dimethyl-2H-indazol-5-yl)-2-(1-ethylpiperidin-4-yl)-2,7-naphthyridin-1(2H)-one] | 5.00 to 6.00 |  | 1 to 10 µM | 5.00 to 6.00 | 1 to 10 µM |
| Cc1cc(-c2cc3ccn(C4CCNCC4)c(=O)c3cn2)cc2cn(C)nc12 [Compound 1204, 6-(2,7-dimethyl-2H-indazol-5-yl)-2-(piperidin-4-yl)-2,7-naphthyridin-1(2H)-one] | 6.00 to 7.00 |  | 0.1 to 1 µM | 6.00 to 7.00 | 0.1 to 1 µM |
| Cc1c(O)c(-c2ncc3c(=O)n([C@@H]4C[C@H]5CC[C@@H](C4)N5)ccc3n2)cc2cn(C)nc12 [Compound 1429, 6-[(1S,5R)-8-azabicyclo[3.2.1]octan-3-yl]-2-(6-hydroxy-2,7-dimethyl-indazol-5-yl)pyrido[4,3-d]pyrimidin-5-one] | 6.00 to 7.00 | 6.00 to 7.00 | 0.1 to 1 µM |  | 0.1 to 1 µM |
| Cn1cc2cc(-c3ccc4c(=O)n([C@H]5CCNC5)ccc4n3)c(O)c(F)c2n1 [Compound 1451, 2-(7-fluoro-6-hydroxy-2-methyl-indazol-5-yl)-6-[(3S)-pyrrolidin-3-yl]-1,6-naphthyridin-5-one] | 6.00 to 7.00 | 6.00 to 7.00 | 0.1 to 1 µM |  | 0.1 to 1 µM |
| Cc1cn2cc(-c3ncc4c(=O)n(C5CCNCC5)ccc4n3)c(O)c(C)c2n1 [Compound 1225] | 6.00 to 7.00 |  | 0.1 to 1 µM | 6.00 to 7.00 | 0.1 to 1 µM |
| Cc1cn2cc(-c3cc(O)c4c(=O)n(C5CCNCC5)ccc4n3)cc(F)c2n1 [Compound 1448] | 5.00 to 6.00 | 6.00 to 7.00 | 0.1 to 1 µM |  | 0.1 to 1 µM |
| Cn1cc2cc(-c3ccc4c(=O)n([C@@H]5CCNC6(CC6)C5)ccc4n3)c(O)cc2n1 [Compound 1246] | 6.00 to 7.00 | 6.00 to 7.00 | 0.1 to 1 µM |  | 0.1 to 1 µM |
| Cc1c(O)c(-c2ncc3c(=O)n(C4CCNC4)ccc3n2)cc2cn(C)nc12 (stereo not shown) [Compound 1222] | < 5.00 |  | 1 to 10 µM | 5.00 to 6.00 | 1 to 10 µM |
| Cc1cn2nc(-c3ccc4c(=O)n([C@@H]5CCNC5)ccc4n3)cc(C)c2n1 [Compound 1438, 2-(2,8-dimethylimidazo[1,2-b]pyridazin-6-yl)-6-[(3R)-pyrrolidin-3-yl]-1,6-naphthyridin-5-one] | 5.00 to 6.00 | 5.00 to 6.00 | 1 to 10 µM |  | 1 to 10 µM |
| Cc1c(O)c(-c2ncc3c(=O)n([C@H]4CCNC(C)(C)C4)ccc3n2)cc2cn(C)nc12 [Compound 1436] | 5.00 to 6.00 | 5.00 to 6.00 | < 0.1 µM |  | 1 to 10 µM |
| Cc1cn2cc(-c3ccc4c(=O)n(C5CCNCC5)ccc4n3)cc(C#N)c2n1 [Compound 1297] | 6.00 to 7.00 | 6.00 to 7.00 | 0.1 to 1 µM |  | 0.1 to 1 µM |
| Cc1c(O)c(-c2ncc3c(=O)n([C@H]4CCN[C@@H](C)C4)ccc3n2)cc2cn(C)nc12 [Compound 1441, 2-(6-hydroxy-2,7-dimethyl-indazol-5-yl)-6-(2-methyl-4-piperidyl)pyrido[4,3-d]pyrimidin-5-one] | 6.00 to 7.00 | 6.00 to 7.00 | < 0.1 µM |  | 0.1 to 1 µM |
| Cc1c(O)c(-c2ncc3c(=O)n(C4CNC4)ccc3n2)cc2cn(C)nc12 [Compound 1305, 6-(azetidin-3-yl)-2-(6-hydroxy-2,7-dimethyl-indazol-5-yl)pyrido[4,3-d]pyrimidin-5-one] | < 5.00 | < 5.00 | 1 to 10 µM |  | > 10 µM |
| Cc1cn2nc(-c3ccc4c(c3F)CCN(C3CCNCC3)C4=O)cc(C)c2n1 [Compound 188] | 5.00 to 6.00 |  | 1 to 10 µM | 5.00 to 6.00 | 1 to 10 µM |

Second part, led by results:

| pIC50 (HTT mRNA; [2]) | pIC50 (HTT mRNA; [3]) | GI50 [1] | pIC50 (HTT mRNA; [4]) | Structure (SMILES) | AC50 (HTT mRNA; RT-qPCR) |
| --- | --- | --- | --- | --- | --- |
| 5.00 to 6.00 | 5.00 to 6.00 | 0.1 to 1 µM |  | Cc1c(O)c(-c2ccc3c(=O)n([C@H]4CCNC4)ccc3n2)cc2cn(C)nc12 [Compound 1449, 2-(6-hydroxy-2,7-dimethyl-indazol-5-yl)-6-[(3S)-pyrrolidin-3-yl]-1,6-naphthyridin-5-one] | 1 to 10 µM |
| 6.00 to 7.00 | 6.00 to 7.00 | 0.1 to 1 µM |  | Cc1c(O)c(-c2ncc3c(=O)n(C4C[C@H]5C[C@@H]4CN5)ccc3n2)cc2cn(C)nc12 (stereo in doubt) [Compound 1444, 6-[(1R,4R,5R)-2-azabicyclo[2.2.1]heptan-5-yl]-2-(6-hydroxy-2,7-dimethyl-indazol-5-yl)pyrido[4,3-d]pyrimidin-5-one] | 0.1 to 1 µM |
| 5.00 to 6.00 |  | 0.1 to 1 µM | 5.00 to 6.00 | Cn1cc2cc(-c3ccc4c(=O)n(C5CCNCC5)cnc4c3)ccc2n1 [Compound 182] | 1 to 10 µM |
| 6.00 to 7.00 |  | 0.1 to 1 µM | 6.00 to 7.00 | Cc1cn2cc(-c3ncc4c(=O)n([C@H]5CCNC5)ccc4n3)cc(F)c2n1 [Compound 1220] | 0.1 to 1 µM |
| < 5.00 | < 5.00 | 0.1 to 1 µM |  | Cc1c(O)c(-c2ncc3c(=O)n(C4CCNC4)ccc3n2)cc2cn(C)nc12 (stereo in doubt) [Compound 1440, (6S)-2-(6-hydroxy-2,7-dimethyl-indazol-5-yl)-6-pyrrolidin-3-yl-pyrido[4,3-d]pyrimidin-5-one] | > 10 µM |
| 5.00 to 6.00 |  | 1 to 10 µM | 5.00 to 6.00 | Cn1cc2cc(-c3cc4ccn(C5CCNCC5)c(=O)c4cn3)c(O)c(F)c2n1 [Compound 1199] | 1 to 10 µM |
| 5.00 to 6.00 |  | 1 to 10 µM | 5.00 to 6.00 | COc1c(-c2cc3ccn(C4CCNCC4)c(=O)c3cn2)cc2cn(C)nc2c1F [Compound 1219] | 1 to 10 µM |
| < 5.00 | < 5.00 | > 10 µM |  | COc1c(-c2ccc3c(=O)n(C4CCNCC4)ccc3n2)cc2cn(C)nc2c1C [Compound 1243] | > 10 µM |
| 5.00 to 6.00 | 5.00 to 6.00 | 1 to 10 µM |  | Cc1c(O)c(-c2ncc3c(=O)n([C@H]4C[C@@H](N)C4)ccc3n2)cc2cn(C)nc12 [Compound 1431, 6-((1s,3s)-3-aminocyclobutyl)-2-(6-hydroxy-2,7-dimethyl-2H-indazol-5-yl)pyrido[4,3-d]pyrimidin-5(6H)-one] | 1 to 10 µM |
| 6.00 to 7.00 | 6.00 to 7.00 | 0.1 to 1 µM |  | Cc1c(O)c(-c2ncc3c(=O)n(N4CCNCC4)ccc3n2)cc2cn(C)nc12 [Compound 1303] | 0.1 to 1 µM |
| > 7.00 |  | 0.1 to 1 µM | > 7.00 | Cc1cn2nc(-c3ccc4c(=O)n(C5CCNCC5)ncc4c3)cc(C)c2n1 [Compound 186] | < 0.1 µM |
| 5.00 to 6.00 | 6.00 to 7.00 | 0.1 to 1 µM |  | Cc1c(O)c(-c2ncc3c(=O)n(C4CCNC(C)(C)C4)ccc3n2)cc2cn(C)nc12 (stereo not shown) [Compound 1442] | 0.1 to 1 µM |
| < 5.00 | < 5.00 | 1 to 10 µM |  | Cc1c(O)c(-c2ncc3c(=O)n([C@@H]4C[C@H]5C[C@@H]4CN5)ccc3n2)cc2cn(C)nc12 [Compound 1445, 6-[(1R,4R,5R)-2-azabicyclo[2.2.1]heptan-5-yl]-2(6-hydroxy-2,7-dimethyl-indazol-5-yl)pyrido[4,3-d]pyrimidin-5-one] | > 10 µM |
| 5.00 to 6.00 | 6.00 to 7.00 | 0.1 to 1 µM |  | Cc1c(O)c(-c2ncc3c(=O)n(C4CCN(C)CC4)ccc3n2)cc2cn(C)nc12 [Compound 1304] | 0.1 to 1 µM |
